# Values quoted from earlier work in patent EP2251003A2, “Ophthalmic Compositions for the Re-epithelialization, Healing and Disinfection of the Eye Tissues” (priority 2009, dated 2010).
# Read-outs that look alike come from different tables or passages of the source.
# Columns and labels:
# [1] = rat, more recent studies
# eye of the rabbit [2] = details: topical
# [3] = topical use, reported in the literature
# [4] = mouse
# [5] = 50 mg/kg/day administered orally to rats, subchronic
# fibroblast = details: in vitro
# [6] = eyedrops containing dexpanthenol
# eye of the rabbit [7] = details: 5% ophthalmic solution, topical application
# [8] = 1.5 g/kg/day administered for 90 days
# [9] = in vivo
# [10] = 1 g/kg/day, rat
# cornea of the rabbit = details: administered to the cornea of the rabbit
smiles,measurement,setting,value
N=C(N)c1ccc(OCCCCCCOc2ccc(C(=N)N)cc2)cc1 [hexamidine diisethionate],"oral acute toxicity, expressed as LD50",[1],750 mg/kg
same,eye irritation,eye of the rabbit [2]; aqueous solutions containing 0.10-0.11%,"slight, transient irritation"
same,eye irritation,eye of the rabbit [2]; concentration of 0.050%,no reaction
same,cases of sensitisation,[3],nine cases out of millions of subjects
same,intraperit. LD50,[4]; intraperitoneal,1060 mg/kg
same,oral LD Lo,[4]; oral,100 mg/kg
same,oral LD50,"[4]; oral, Toxicology and Applied Pharmacology 1975",280 mg/kg
same,"oral acute toxicity, expressed as LD50","[4]; oral, more recent studies",710 to 2500 mg/kg
same,toxic effect,[5],did not show any toxic effect
CC(C)(CO)[C@@H](O)C(=O)NCCCO [dexpanthenol],fibroblast proliferation,fibroblast,activation of fibroblast proliferation
same,ocular tolerability,[6],excellent
same,extent and time of re-epithelialisation of the corneal endothelium,eye of the rabbit [7],significantly stimulated
"CS(C)(=O)=O [MSM, Methylsulphonylmethane]",toxic effect,[8],do not have any toxic effect
same,absorption and urinary elimination,[9],rapid absorption and rapid urinary elimination
same,"toxic effects on fertility, gestation and neonatal development",[10],absence of toxic effects
same,intraocular absorption of other substances,cornea of the rabbit,promotes intraocular absorption of disodium edetate and other substances
